From PubChem BioAssay (NCI)
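Cultured in 96-well plates, cells were exposed to test compound for 48 hours across five concentrations. At the GI50, growth is halved. TGI is the concentration that stops growth completely.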

Legend:
Experiment in all cases: DTP human tumour cell line panel, 48 h
U251 CNS = system: U251 CNS
NCI-H23 lung = system: NCI-H23 lung
HOP-92 NSCLC = system: HOP-92 NSCLC
NCI/ADR-RES ovarian = system: NCI/ADR-RES ovarian
HS 578T breast = system: HS 578T breast
A498 renal = system: A498 renal
UACC-257 melanoma = system: UACC-257 melanoma
DU-145 prostate = system: DU-145 prostate
T-47D breast = system: T-47D breast
OVCAR-8 ovarian = system: OVCAR-8 ovarian
SK-MEL-28 melanoma = system: SK-MEL-28 melanoma
KM12 colon = system: KM12 colon
MCF7 breast = system: MCF7 breast
HT29 colon = system: HT29 colon
MDA-MB-435 = system: MDA-MB-435
SF-295 CNS = system: SF-295 CNS
RXF 393 renal = system: RXF 393 renal
TK-10 renal = system: TK-10 renal
SN12C renal = system: SN12C renal
K-562 leukemia = system: K-562 leukemia
ACHN renal = system: ACHN renal
786-0 renal = system: 786-0 renal
LOX IMVI melanoma = system: LOX IMVI melanoma
UACC-62 melanoma = system: UACC-62 melanoma
NCI-H460 lung = system: NCI-H460 lung
SF-268 CNS = system: SF-268 CNS
HOP-62 NSCLC = system: HOP-62 NSCLC
CAKI-1 renal = system: CAKI-1 renal
OVCAR-4 ovarian = system: OVCAR-4 ovarian
BT-549 breast = system: BT-549 breast
MDA-MB-231 breast = system: MDA-MB-231 breast
OVCAR-5 ovarian = system: OVCAR-5 ovarian
SF-539 CNS = system: SF-539 CNS
SK-MEL-5 melanoma = system: SK-MEL-5 melanoma
A549 NSCLC = system: A549 NSCLC
EKVX NSCLC = system: EKVX NSCLC
HCC-2998 colon = system: HCC-2998 colon
PC-3 prostate = system: PC-3 prostate
SR leukemia = system: SR leukemia
SNB-19 CNS = system: SNB-19 CNS
CCRF-CEM leukemia = system: CCRF-CEM leukemia
COLO 205 colon = system: COLO 205 colon
OVCAR-3 ovarian = system: OVCAR-3 ovarian
SK-OV-3 ovarian = system: SK-OV-3 ovarian
RPMI-8226 leukemia = system: RPMI-8226 leukemia
HCT-15 colon = system: HCT-15 colon
HCT-116 colon = system: HCT-116 colon
MOLT-4 leukemia = system: MOLT-4 leukemia
M14 melanoma = system: M14 melanoma
SW-620 colon = system: SW-620 colon

Structure (SMILES): CC(=O)OCC1OC(OC2CCCC[Si](c3ccccc3)(c3ccccc3)O2)C(OC(C)=O)C(OC(C)=O)C1OC(C)=O (stereo not given)
- GI50 (U251 CNS): > 100 µM
- TGI (U251 CNS): > 100 µM
- GI50 (NCI-H23 lung): > 100 µM
- TGI (NCI-H23 lung): > 100 µM
- GI50 (HOP-92 NSCLC): > 100 µM
- TGI (HOP-92 NSCLC): > 100 µM
- GI50 (NCI/ADR-RES ovarian): > 100 µM
- TGI (NCI/ADR-RES ovarian): > 100 µM
- GI50 (HS 578T breast): > 100 µM
- TGI (HS 578T breast): > 100 µM
- GI50 (A498 renal): > 100 µM
- TGI (A498 renal): > 100 µM
- GI50 (UACC-257 melanoma): > 100 µM
- TGI (UACC-257 melanoma): > 100 µM
- GI50 (DU-145 prostate): > 100 µM
- TGI (DU-145 prostate): > 100 µM
- GI50 (T-47D breast): > 100 µM
- TGI (T-47D breast): > 100 µM
- GI50 (OVCAR-8 ovarian): > 100 µM
- TGI (OVCAR-8 ovarian): > 100 µM
- GI50 (SK-MEL-28 melanoma): > 100 µM
- TGI (SK-MEL-28 melanoma): > 100 µM
- GI50 (KM12 colon): > 100 µM
- TGI (KM12 colon): > 100 µM
- GI50 (MCF7 breast): 69.2 µM
- TGI (MCF7 breast): > 100 µM
- GI50 (HT29 colon): > 100 µM
- TGI (HT29 colon): > 100 µM
- GI50 (MDA-MB-435): 51 µM
- TGI (MDA-MB-435): > 100 µM
- GI50 (SF-295 CNS): > 100 µM
- TGI (SF-295 CNS): > 100 µM
- GI50 (RXF 393 renal): > 100 µM
- TGI (RXF 393 renal): > 100 µM
- GI50 (TK-10 renal): > 100 µM
- TGI (TK-10 renal): > 100 µM
- GI50 (SN12C renal): > 100 µM
- TGI (SN12C renal): > 100 µM
- GI50 (K-562 leukemia): 56.1 µM
- TGI (K-562 leukemia): > 100 µM
- GI50 (ACHN renal): > 100 µM
- TGI (ACHN renal): > 100 µM
- GI50 (786-0 renal): > 100 µM
- TGI (786-0 renal): > 100 µM
- GI50 (LOX IMVI melanoma): 53.6 µM
- TGI (LOX IMVI melanoma): > 100 µM
- GI50 (UACC-62 melanoma): > 100 µM
- TGI (UACC-62 melanoma): > 100 µM
- GI50 (NCI-H460 lung): > 100 µM
- TGI (NCI-H460 lung): > 100 µM
- GI50 (SF-268 CNS): > 100 µM
- TGI (SF-268 CNS): > 100 µM
- GI50 (HOP-62 NSCLC): > 100 µM
- TGI (HOP-62 NSCLC): > 100 µM
- GI50 (CAKI-1 renal): 38.9 µM
- TGI (CAKI-1 renal): > 100 µM
- GI50 (OVCAR-4 ovarian): > 100 µM
- TGI (OVCAR-4 ovarian): > 100 µM
- GI50 (BT-549 breast): > 100 µM
- TGI (BT-549 breast): > 100 µM
- GI50 (MDA-MB-231 breast): > 100 µM
- TGI (MDA-MB-231 breast): > 100 µM
- GI50 (OVCAR-5 ovarian): > 100 µM
- TGI (OVCAR-5 ovarian): > 100 µM
- GI50 (SF-539 CNS): 29.2 µM
- TGI (SF-539 CNS): 79.1 µM
- GI50 (SK-MEL-5 melanoma): > 100 µM
- TGI (SK-MEL-5 melanoma): > 100 µM
- GI50 (A549 NSCLC): > 100 µM
- TGI (A549 NSCLC): > 100 µM
- GI50 (EKVX NSCLC): > 100 µM
- TGI (EKVX NSCLC): > 100 µM
- GI50 (HCC-2998 colon): > 100 µM
- TGI (HCC-2998 colon): > 100 µM
- GI50 (PC-3 prostate): > 100 µM
- TGI (PC-3 prostate): > 100 µM
- GI50 (SR leukemia): 73.6 µM
- TGI (SR leukemia): > 100 µM
- GI50 (SNB-19 CNS): > 100 µM
- TGI (SNB-19 CNS): > 100 µM
- GI50 (CCRF-CEM leukemia): 35.5 µM
- TGI (CCRF-CEM leukemia): > 100 µM
- GI50 (COLO 205 colon): > 100 µM
- TGI (COLO 205 colon): > 100 µM
- GI50 (OVCAR-3 ovarian): 13.3 µM
- TGI (OVCAR-3 ovarian): 69.5 µM
- GI50 (SK-OV-3 ovarian): > 100 µM
- TGI (SK-OV-3 ovarian): > 100 µM
- GI50 (RPMI-8226 leukemia): 32.6 µM
- TGI (RPMI-8226 leukemia): > 100 µM
- GI50 (HCT-15 colon): > 100 µM
- TGI (HCT-15 colon): > 100 µM
- GI50 (HCT-116 colon): 24.5 µM
- TGI (HCT-116 colon): 59.2 µM
- GI50 (MOLT-4 leukemia): 10.3 µM
- TGI (MOLT-4 leukemia): > 100 µM
- GI50 (M14 melanoma): > 100 µM
- TGI (M14 melanoma): > 100 µM
- GI50 (SW-620 colon): 53 µM
- TGI (SW-620 colon): > 100 µM
